Measured values as given in patent publication US12559455B2, “Compound as a UBR box domain ligand” (AUTOTAC INC., priority 2020, dated 2026).
Peptide text beside a SMILES is read from it. * marks the point of attachment. Cbz = O=C(OCc1ccccc1)*

Tests used:
UBR1 [1] = assay: Inhibition of R-nsP4 degradation by in vitro transcription/translation method; assay type: biochemical; details: compound 1 uM, 30° C. for 40 minutes, DHFR-Ub-R-nsP4 plasmid, immunoblotting
Method: A TnT® Quick Coupled Transcription/Translation System kit was used to confirm the R-nsP4 expression of the compounds. After a pre-mix was made using Transcend Biotin-Lysyl-tRNA, methionine, bestatin, a TnTquick Master mix and a DHFR-Ub-R-nsP4 plasmid, the pre-mix was mixed with a compound (1 uM). After each sample was reacted at 30° C. for 40 minutes, a 5×SDS loading dye was added thereto. After the resulting mixture was reacted at 95° C. for 2 minutes, 5 uL was taken and aliquoted into each well of an acrylamide gel, and then an immunoblotting method was performed, and the experimental results are illustrated in [FIG. 2]. For an in vitro transcription/translation method, a representative experiment was schematized from three or more independent experiments.
Referring to FIG. 2, it can be confirmed that the level of R-nsP4 is increased by Compound 2, Compound 3, Compound 7, Compound 12, Compound 14, and Compound 16 compared to the control. That is, it could be confirmed that in the case of treatment with the compound according to the present invention, the R-nsP4 level was increased by binding to UBR1.

UBR1 [2] = molecular target: T1, UBR1 (Rattus norvegicus, UniProt A0A8I5ZK69); assay: Inhibition of intracellular RGS4 degradation by transfection (immunoblotting); assay type: cell-based; details: L6 cell line transfected with RGS4 plasmid, compound 5 uM, 24 hours
T1 construct: endogenous in cells; host or cells: L6 rat muscle-derived cells
Method: A L6 cell line, which is a rat muscle-derived cell, was cultured using a DMEM medium containing 10% FBS and 1% streptomycin/penicillin in an incubator in which 5% carbon dioxide was maintained. In order to measure the UBR1 binding strength according to the treatment with a representative compound selected from the present compounds, cells were aliquoted into a 6-well plate. The cells were additionally cultured for 24 hours so as to be completely attached to the surface of the plate. Opti-MEM, Lipofectamine, and an RGS4plasmid was reacted for transfection. After the reaction was completed, the cells are treated such that DNA was expressed intracellularly. […] To extract proteins from the collected cells, 50 uL of a lysis buffer (20 mM Tris, pH 7.4, 150 mM NaCl, 1% Triton-X-100, 2 mM NaF, 2 mM EDTA, 2 mM b-glycerophosphate, 5 mM sodium orthovanadate, 1 mM PMSF, leupeptin, aprotenin) was injected into each sample, and the cells were lysed. A sample buffer was added to each sample based on the measured total protein concentration, and the mixture was reacted at 100° C. for 5 minutes. After 5 uL was taken from the completely reacted sample and aliquoted into each well of an acrylamide gel, an immunoblotting method was performed, and the experimental results are illustrated in [FIG. 3]. […]

UBR2 = molecular target: T2, UBR2 (Rattus norvegicus, UniProt A0A8I5YBG5); assay: UBR box domain binding strength by immunoprecipitation analysis, UBR2; assay type: cell-based; details: L6 cell line, compound 5 uM, 24 hours, immunoprecipitation and immunoblotting
T2 construct: endogenous in cells; host or cells: L6 rat muscle-derived cells
Method: (§1) To evaluate the binding strength of the compounds to UBR1, UBR2, UBR3 and UBR5 through the UBR box domain, a L6 cell line, which is a rat muscle-derived cell, was cultured using a DMEM medium containing 10% FBS and 1% streptomycin/penicillin in an incubator in which 5% carbon dioxide was maintained. In order to measure the UBR1 binding strength according to the treatment with a representative compound selected from the present compounds, cells were aliquoted into a 100 pi dish. The cells were additionally cultured for 24 hours so as to be completely attached to the surface of the plate. […] To extract proteins from the collected cells, 50 uL of a lysis buffer (20 mM Tris, pH 7.4, 150 mM NaCl, 1% Triton-X-100, 2 mM NaF, 2 mM EDTA, 2 mM b-glycerophosphate, 5 mM sodium orthovanadate, 1 mM PMSF, leupeptin, aprotenin) was injected into each sample, and the cells were lysed. Each sample was reacted with a UBR1 antibody for 16 hours based on the measured total protein concentration, and then reacted with Protein A/G beads for 3 hours. A sample buffer was added to the completely reacted sample and the resulting mixture was reacted at 100° C. for 5 minutes. After 20 uL was taken from the completely reacted sample and aliquoted into each well of an acrylamide gel, an immunoblotting method was performed, and the experimental results are illustrated in [FIG. 10] and [FIG. 11]. […]

UBR1 [3] = molecular target: T1, UBR1; assay: Inhibition of muscle cell actin degradation by immunoblotting; assay type: cell-based; details: L6 cell line, compound 5 uM, 24 hours
Method: To evaluate the actin degradation of compounds in muscle cells, a L6 cell line, which is a rat muscle-derived cell, was cultured using a DMEM medium containing 10% FBS and 1% streptomycin/penicillin in an incubator in which 5% carbon dioxide was maintained. In order to measure the UBR1 binding strength according to the treatment with a representative compound selected from the present compounds, cells were aliquoted into a 12-well plate. The cells were additionally cultured for 24 hours so as to be completely attached to the surface of the plate. […] To extract proteins from the collected cells, 50 uL of a lysis buffer (20 mM Tris, pH 7.4, 150 mM NaCl, 1% Triton-X-100, 2 mM NaF, 2 mM EDTA, 2 mM b-glycerophosphate, 5 mM sodium orthovanadate, 1 mM PMSF, leupeptin, aprotenin) was injected into each sample, and the cells were lysed. A sample buffer was added to each sample based on the measured total protein concentration, and the mixture was reacted at 100° C. for 5 minutes. After 5 uL was taken from the completely reacted sample and aliquoted into each well of an acrylamide gel, an immunoblotting method was performed, and the experimental results were illustrated in [FIG. 4], [FIG. 5], [FIG. 6], [FIG. 7], [FIG. 8], and [FIG. 9]. For the immunoblotting method, a representative experiment was schematized from three or more independent experiments.

UBR1 [4] = molecular target: T1, UBR1; assay: UBR box domain binding strength by immunoprecipitation analysis, UBR1; assay type: cell-based; details: L6 cell line, 24 hours, immunoprecipitation and immunoblotting
Method: as §1

UBR3 = molecular target: T3, UBR3 (Rattus norvegicus, UniProt D4A7F0); assay: UBR box domain binding strength by immunoprecipitation analysis, UBR3; assay type: cell-based; details: L6 cell line, compound 5 uM, 24 hours, immunoprecipitation and immunoblotting
T3 construct: endogenous in cells; host or cells: L6 rat muscle-derived cells
Method: as §1

UBR5 = molecular target: T4, UBR5 (Rattus norvegicus, UniProt Q62671); assay: UBR box domain binding strength by immunoprecipitation analysis, UBR5; assay type: cell-based; details: L6 cell line, compound 5 uM, 24 hours, immunoprecipitation and immunoblotting
T4 construct: endogenous in cells; host or cells: L6 rat muscle-derived cells
Method: as §1

UBR box of Human UBR1 = molecular target: T5, UBR box of Human UBR1 (Homo sapiens, UniProt Q8IWV7); assay: UBR box domain binding by microscale thermophoresis (MST); details: RED-NHS labeled UBR1 UBR box protein (Gln97-Pro168), FIGS. 12 to 19
T5 construct: A Gln97-Pro168 portion corresponding to the UBR box of Human UBR1; made in house; host or cells: E. coli
Method: A Gln97-Pro168 portion corresponding to the UBR box of Human UBR1 (UniProt ID: Q81WV7) was cloned into a modified expression vector, and then expressed in E. coli. After affinity chromatography was used, a tag was removed by a protease, and then Gly-His-Met was added to the N-terminal. After ion chromatography was performed, a final UBR box protein of a UBR1 was purified using gel filtration chromatography in a buffer composition of 10 mM NaCl, 20 mM Tris-HCl, 2 mM beta-mercaptoethanol, and pH 7.5.
A dye of the Monolith protein labeling kit RED-NHS 2nd generation (Cat #MO-L011) has an NHS-ester group that forms a covalent bond with primary amines (lysine residues). This dye is optimized for a Monolith-series device equipped with a RED detector. A purified UBR1 UBR box protein was labeled according to the presented protocol using this kit.
Thermophoresis refers to a phenomenon in which particles move due to a temperature gradient. Particles present in a high temperature region have greater kinetic energy than particles present in a low temperature region, and more frequently collide with surrounding particles with greater energy. As a result, particles move from the high temperature region to the low temperature region.
Thermophoresis of proteins is typically different from that of protein-ligand complexes. This is because the binding of the ligand changes its size, electric charge, and solvation energy. […] Therefore, the binding of the UBR1 UBR box protein and the ligand compound was measured using MST, and it was confirmed that the presented ligand binds to the UBR1 UBR box (see FIGS. 12 to 19).

L6 cell line = assay: Confirmation of whether muscle actin is Arg/N-degron pathway substrate (immunoblotting); assay type: cell-based, rat; details: MG132 10 uM, 24 hours
Method: A L6 cell line, which is a rat muscle-derived cell, was cultured using a DMEM medium containing 10% FBS and 1% streptomycin/penicillin in an incubator in which 5% carbon dioxide was maintained, and cells were aliquoted into a 12-well plate after the culture. The cells were additionally cultured for 24 hours so as to be completely attached to the surface of the plate. To confirm whether MG132 increased UBR1 binding, cells were collected after treatment with MG132 (10 uM) alone for 24 hours. To extract proteins from the collected cells, 50 uL of a lysis buffer (20 mM Tris, pH 7.4, 150 mM NaCl, 1% Triton-X-100, 2 mM NaF, 2 mM EDTA, 2 mM b-glycerophosphate, 5 mM sodium orthovanadate, 1 mM PMSF, leupeptin, aprotenin) was injected into each sample, and the cells were lysed. A sample buffer was added to each sample based on the measured total protein concentration, and the mixture was reacted at 100° C. for 5 minutes. After 5 uL was taken from the completely reacted sample and aliquoted into each well of an acrylamide gel, an immunoblotting method was performed, and the experimental results are illustrated in [FIG. 1]. For the immunoblotting method, a representative experiment was schematized from three or more independent experiments.

T1 sequence (A0A8I5ZK69 1-1749): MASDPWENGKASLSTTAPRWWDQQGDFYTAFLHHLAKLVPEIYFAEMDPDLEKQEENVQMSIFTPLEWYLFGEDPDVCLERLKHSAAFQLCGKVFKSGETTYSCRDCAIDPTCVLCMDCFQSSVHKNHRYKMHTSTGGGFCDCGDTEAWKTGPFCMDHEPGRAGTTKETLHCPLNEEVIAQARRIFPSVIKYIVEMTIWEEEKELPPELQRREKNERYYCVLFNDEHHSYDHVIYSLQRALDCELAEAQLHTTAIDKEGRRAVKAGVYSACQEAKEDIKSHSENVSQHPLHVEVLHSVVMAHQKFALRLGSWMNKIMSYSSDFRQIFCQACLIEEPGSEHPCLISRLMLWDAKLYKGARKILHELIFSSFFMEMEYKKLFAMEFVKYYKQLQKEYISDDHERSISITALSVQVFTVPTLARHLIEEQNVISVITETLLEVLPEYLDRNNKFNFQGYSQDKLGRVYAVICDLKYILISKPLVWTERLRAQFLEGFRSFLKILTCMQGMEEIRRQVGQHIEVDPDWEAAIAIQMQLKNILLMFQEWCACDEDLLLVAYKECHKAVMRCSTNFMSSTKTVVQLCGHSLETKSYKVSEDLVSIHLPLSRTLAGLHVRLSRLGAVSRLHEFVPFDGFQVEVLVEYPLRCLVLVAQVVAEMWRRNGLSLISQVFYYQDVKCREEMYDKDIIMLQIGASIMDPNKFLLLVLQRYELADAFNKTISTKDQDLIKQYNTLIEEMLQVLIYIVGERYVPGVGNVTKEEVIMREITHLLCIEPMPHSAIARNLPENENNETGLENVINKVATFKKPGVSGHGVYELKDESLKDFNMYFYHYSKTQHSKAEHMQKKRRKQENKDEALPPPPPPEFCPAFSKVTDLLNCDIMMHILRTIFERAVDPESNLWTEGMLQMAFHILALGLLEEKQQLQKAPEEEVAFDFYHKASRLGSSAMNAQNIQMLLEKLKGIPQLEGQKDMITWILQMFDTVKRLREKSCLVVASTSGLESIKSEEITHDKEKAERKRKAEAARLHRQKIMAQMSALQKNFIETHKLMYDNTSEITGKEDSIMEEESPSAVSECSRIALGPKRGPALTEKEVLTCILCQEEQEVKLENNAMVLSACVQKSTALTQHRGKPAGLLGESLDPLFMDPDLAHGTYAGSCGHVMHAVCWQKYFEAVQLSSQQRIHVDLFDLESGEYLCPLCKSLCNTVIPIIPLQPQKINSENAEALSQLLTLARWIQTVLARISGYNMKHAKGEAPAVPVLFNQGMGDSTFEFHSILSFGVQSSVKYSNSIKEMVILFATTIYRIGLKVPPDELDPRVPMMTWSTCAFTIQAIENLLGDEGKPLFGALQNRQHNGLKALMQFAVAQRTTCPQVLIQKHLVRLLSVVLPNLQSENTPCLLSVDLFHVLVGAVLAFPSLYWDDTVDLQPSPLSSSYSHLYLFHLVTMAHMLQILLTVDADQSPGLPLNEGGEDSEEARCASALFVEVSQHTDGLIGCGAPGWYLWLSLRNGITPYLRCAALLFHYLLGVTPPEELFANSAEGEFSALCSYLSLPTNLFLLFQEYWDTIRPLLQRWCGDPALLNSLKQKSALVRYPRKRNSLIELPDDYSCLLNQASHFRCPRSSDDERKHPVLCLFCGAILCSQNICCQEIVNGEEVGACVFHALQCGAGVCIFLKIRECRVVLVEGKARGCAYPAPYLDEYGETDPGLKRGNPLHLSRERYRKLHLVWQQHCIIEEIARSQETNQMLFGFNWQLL
T5 sequence (Q8IWV7 97-168): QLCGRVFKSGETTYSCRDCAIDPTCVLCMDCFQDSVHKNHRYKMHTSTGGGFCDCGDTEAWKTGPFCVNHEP
T4 sequence (Q62671 whole entry, the tested form may be a part): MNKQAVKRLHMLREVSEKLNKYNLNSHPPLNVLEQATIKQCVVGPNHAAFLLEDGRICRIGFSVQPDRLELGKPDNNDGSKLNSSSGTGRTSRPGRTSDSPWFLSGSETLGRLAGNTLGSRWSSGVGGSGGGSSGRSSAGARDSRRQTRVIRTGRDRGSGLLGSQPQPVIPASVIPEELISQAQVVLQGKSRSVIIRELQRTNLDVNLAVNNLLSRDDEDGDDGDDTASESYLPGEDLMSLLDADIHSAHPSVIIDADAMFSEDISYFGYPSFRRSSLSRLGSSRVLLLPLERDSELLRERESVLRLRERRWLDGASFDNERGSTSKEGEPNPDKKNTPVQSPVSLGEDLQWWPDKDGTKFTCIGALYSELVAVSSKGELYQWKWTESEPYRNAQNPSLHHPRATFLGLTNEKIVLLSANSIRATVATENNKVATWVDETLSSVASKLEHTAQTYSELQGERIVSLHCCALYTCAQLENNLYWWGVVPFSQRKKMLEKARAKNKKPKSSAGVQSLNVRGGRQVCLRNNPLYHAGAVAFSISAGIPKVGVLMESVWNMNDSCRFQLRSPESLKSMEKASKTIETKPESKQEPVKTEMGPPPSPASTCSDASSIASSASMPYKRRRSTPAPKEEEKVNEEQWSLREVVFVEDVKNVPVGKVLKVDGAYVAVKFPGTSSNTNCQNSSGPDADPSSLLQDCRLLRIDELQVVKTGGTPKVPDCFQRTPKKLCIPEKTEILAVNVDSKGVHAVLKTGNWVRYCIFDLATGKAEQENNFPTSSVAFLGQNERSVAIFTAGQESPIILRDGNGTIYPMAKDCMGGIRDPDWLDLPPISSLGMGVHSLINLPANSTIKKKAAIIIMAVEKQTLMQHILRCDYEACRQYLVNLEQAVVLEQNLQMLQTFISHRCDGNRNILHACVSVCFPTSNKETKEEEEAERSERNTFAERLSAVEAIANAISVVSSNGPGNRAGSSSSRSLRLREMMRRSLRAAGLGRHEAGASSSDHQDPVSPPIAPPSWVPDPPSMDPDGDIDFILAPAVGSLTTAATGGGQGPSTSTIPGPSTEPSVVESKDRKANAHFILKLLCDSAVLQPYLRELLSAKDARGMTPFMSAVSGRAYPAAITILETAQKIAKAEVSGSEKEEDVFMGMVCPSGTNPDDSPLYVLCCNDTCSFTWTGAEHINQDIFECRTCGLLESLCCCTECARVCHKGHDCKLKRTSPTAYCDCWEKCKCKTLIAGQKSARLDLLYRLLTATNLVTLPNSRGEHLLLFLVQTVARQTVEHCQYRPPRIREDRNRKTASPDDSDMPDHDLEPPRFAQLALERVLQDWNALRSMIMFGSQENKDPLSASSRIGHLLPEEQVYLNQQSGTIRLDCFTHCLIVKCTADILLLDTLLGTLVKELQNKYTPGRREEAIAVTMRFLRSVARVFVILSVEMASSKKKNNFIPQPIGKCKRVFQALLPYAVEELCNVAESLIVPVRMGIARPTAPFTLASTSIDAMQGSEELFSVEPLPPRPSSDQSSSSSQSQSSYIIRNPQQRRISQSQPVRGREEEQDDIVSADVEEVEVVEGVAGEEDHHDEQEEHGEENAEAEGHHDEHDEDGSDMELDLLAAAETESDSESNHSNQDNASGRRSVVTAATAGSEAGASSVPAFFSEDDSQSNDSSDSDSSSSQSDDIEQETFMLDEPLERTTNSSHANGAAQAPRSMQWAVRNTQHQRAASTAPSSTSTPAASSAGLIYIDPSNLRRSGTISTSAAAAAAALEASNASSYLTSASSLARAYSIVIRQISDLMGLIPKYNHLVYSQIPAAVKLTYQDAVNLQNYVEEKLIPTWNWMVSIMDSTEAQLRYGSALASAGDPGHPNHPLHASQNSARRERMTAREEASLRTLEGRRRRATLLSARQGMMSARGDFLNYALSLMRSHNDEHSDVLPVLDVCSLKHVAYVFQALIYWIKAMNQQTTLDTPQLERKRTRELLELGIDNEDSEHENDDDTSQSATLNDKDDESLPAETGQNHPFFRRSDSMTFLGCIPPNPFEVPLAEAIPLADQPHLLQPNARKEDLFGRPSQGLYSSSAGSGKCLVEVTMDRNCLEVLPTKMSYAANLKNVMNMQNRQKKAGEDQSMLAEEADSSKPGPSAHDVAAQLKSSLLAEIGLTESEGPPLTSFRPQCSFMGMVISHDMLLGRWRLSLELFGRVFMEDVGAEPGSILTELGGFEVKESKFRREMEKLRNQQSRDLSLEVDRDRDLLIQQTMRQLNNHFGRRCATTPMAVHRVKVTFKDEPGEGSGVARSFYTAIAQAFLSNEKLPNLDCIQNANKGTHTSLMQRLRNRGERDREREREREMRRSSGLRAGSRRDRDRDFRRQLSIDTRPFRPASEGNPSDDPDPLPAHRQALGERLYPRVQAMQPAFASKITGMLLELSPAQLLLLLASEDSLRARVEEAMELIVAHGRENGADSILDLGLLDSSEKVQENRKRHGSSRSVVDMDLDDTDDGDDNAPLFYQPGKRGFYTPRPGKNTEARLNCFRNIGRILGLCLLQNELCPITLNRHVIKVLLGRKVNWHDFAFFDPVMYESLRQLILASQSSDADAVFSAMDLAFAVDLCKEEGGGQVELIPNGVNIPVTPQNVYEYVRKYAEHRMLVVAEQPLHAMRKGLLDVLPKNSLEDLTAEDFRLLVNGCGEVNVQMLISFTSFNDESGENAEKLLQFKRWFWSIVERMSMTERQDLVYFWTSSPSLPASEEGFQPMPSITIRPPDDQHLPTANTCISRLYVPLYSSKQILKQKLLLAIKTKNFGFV

For `Nc1ccc(S(=O)(=O)NNC(=O)c2ccc(O)cc2)cc1` [Compound 2, 4-amino-N′-(4-hydroxybenzoyl)benzenesulfonohydrazide], which “level of R-nsP4 compared to the control” value (UBR1 [1]) is on record?
Its value is “increased”.

What about the “level of RGS4 compared to the control” value (UBR1 [2]) of the same compound?
The value was “increased”.

What about the “binding strength of UBR2 and ACTA1” value (UBR2) of the same compound?
Its value is “reduced”.

And the “level of ACTA1 compared to the control” value (UBR1 [3])?
The value was “further increased”.

And the “binding strength of UBR1 and ACTA1” value (UBR1 [4]; compound 5 uM)?
The value was “reduced”.

What about the “binding strength of UBR3 and ACTA1” value (UBR3) of the same compound?
The value was “reduced”.

And the “binding strength of UBR5 and ACTA1” value (UBR5)?
Its value is “reduced”.

And the “binding to UBR1 UBR box (MST)” value (UBR box of Human UBR1)?
The value was “binds”.

What does the source list for `Nc1ccc(S(=O)(=O)NNC(=O)c2ccc(O)cc2)cc1N1CCOCC1` [Compound 3, 4-amino-N′-(4-hydroxybenzoyl)-3-morpholinobenzenesulfonohydrazide]?
level of R-nsP4 compared to the control (UBR1 [1]): increased; level of RGS4 compared to the control (UBR1 [2]): increased; level of ACTA1 compared to the control (UBR1 [3]): further increased

How did the “level of R-nsP4 compared to the control” value (UBR1 [1]) turn out when `Nc1ccc(S(=O)(=O)NNC(=O)c2cccc(-c3ccccc3)c2)cc1` [Compound 7, N′-([1,1′-biphenyl]-3-carbonyl)-4-aminobenzenesulfonohydrazide] was run?
The value was “increased”.

What about the “level of ACTA1 compared to the control” value (UBR1 [3]) of the same compound?
The value was “further increased”.

`Nc1ccc(S(=O)(=O)NCC(=O)c2ccc(O)cc2)cc1` [Compound 12, 4-amino-N-(2-(4-hydroxyphenyl)-2-oxoethyl)benzenesulfonamide] was tested. Which “level of R-nsP4 compared to the control” value (UBR1 [1]) did it give?
The value was “increased”.

And the “level of ACTG2 compared to the control” value (UBR1 [3])?
The value was “further increased”.

What about the “binding to UBR1 UBR box (MST)” value (UBR box of Human UBR1) of the same compound?
Its value is “binds”.

Which results are given for `N=C(N)c1ccc(S(=O)(=O)NNC(=O)c2ccc(O)cc2)cc1` [Compound 14, 4-((2-(4-hydroxybenzoyl)hydrazinyl)sulfonyl)benzimidamide]?
level of R-nsP4 compared to the control (UBR1 [1]): increased; level of ACTG2 compared to the control (UBR1 [3]): further increased

Which “level of R-nsP4 compared to the control” value (UBR1 [1]) does the source give for `Nc1ccc(S(=O)(=O)CNC(=O)c2ccc(O)cc2)cc1` [Compound 16, N-(((4-aminophenyl)sulfonyl)methyl)-4-hydroxybenzamide] here?
Its value is “increased”.

And the “level of ACTA1 compared to the control” value (UBR1 [3])?
The value was “further increased”.

`CC(C)C[C@@H](C=O)NC(=O)[C@H](CC(C)C)NC(=O)[C@H](CC(C)C)NC(=O)OCc1ccccc1` [MG132] (Cbz-Leu-Leu-Leu-aldehyde) was tested. Which “binding strength between UBR1 and a substrate ACTA1” value (UBR1 [4]; MG132 10 uM as negative control) did it give?
The value was “maintained”.

And the “level of ACTA1 compared to a control” value (L6 cell line)?
Its value is “increased”.

What about the “level of ACTC1 compared to a control” value (L6 cell line) of the same compound?
Its value is “increased”.

And the “level of ACTG2 compared to a control” value (L6 cell line)?
Its value is “increased”.
